From the supplement of paper PMC11451515

Tested on: NOMO1
Test: cell viability relative to DMSO control; higher = less cytotoxic
Conditions: 48 h
In short: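 NOMO1, SEM and P12-Ichikawa leukemia cells spent at least four passages adapting to each medium before use. They were seeded at 500 cells/well (NOMO1, SEM) or 1000 cells/well (P12-Ichikawa) in 5 μl in 1536-well plates and pin-dosed with library compounds in DMSO at 11 threefold steps from 47 μM down to 0.79 nM. After 48 h at 37°C, CellTiter-Glo One luminescence was read. Viability is reported as a percentage of the DMSO wells on each plate, with cell-free wells as background.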

[1] = HPLM + 10% dialyzed FBS, 0.000781 µM
[2] = HPLM + 10% dialyzed FBS, 0.00234 µM
[3] = HPLM + 10% dialyzed FBS, 0.00702 µM
[4] = HPLM + 10% dialyzed FBS, 0.0211 µM
[5] = HPLM + 10% dialyzed FBS, 0.0632 µM
[6] = HPLM + 10% dialyzed FBS, 0.19 µM
[7] = HPLM + 10% dialyzed FBS, 0.569 µM
[8] = HPLM + 10% dialyzed FBS, 1.71 µM
[9] = HPLM + 10% dialyzed FBS, 5.12 µM
[10] = HPLM + 10% dialyzed FBS, 15.4 µM
[11] = HPLM + 10% dialyzed FBS, 46.1 µM
[12] = RPMI 5 mM glucose + 10% FBS, 0.000781 µM
[13] = RPMI 5 mM glucose + 10% FBS, 0.00234 µM
[14] = RPMI 5 mM glucose + 10% FBS, 0.00702 µM
[15] = RPMI 5 mM glucose + 10% FBS, 0.0211 µM
[16] = RPMI 5 mM glucose + 10% FBS, 0.0632 µM
[17] = RPMI 5 mM glucose + 10% FBS, 0.19 µM
[18] = RPMI 5 mM glucose + 10% FBS, 0.569 µM
[19] = RPMI 5 mM glucose + 10% FBS, 1.71 µM
[20] = RPMI 5 mM glucose + 10% FBS, 5.12 µM
[21] = RPMI 5 mM glucose + 10% FBS, 15.4 µM
[22] = RPMI 5 mM glucose + 10% FBS, 46.1 µM
[23] = RPMI 5 mM glucose + 10% dialyzed FBS, 0.000781 µM
[24] = RPMI 5 mM glucose + 10% dialyzed FBS, 0.00234 µM
[25] = RPMI 5 mM glucose + 10% dialyzed FBS, 0.00702 µM
[26] = RPMI 5 mM glucose + 10% dialyzed FBS, 0.0211 µM
[27] = RPMI 5 mM glucose + 10% dialyzed FBS, 0.0632 µM
[28] = RPMI 5 mM glucose + 10% dialyzed FBS, 0.19 µM
[29] = RPMI 5 mM glucose + 10% dialyzed FBS, 0.569 µM
[30] = RPMI 5 mM glucose + 10% dialyzed FBS, 1.71 µM
[31] = RPMI 5 mM glucose + 10% dialyzed FBS, 5.12 µM
[32] = RPMI 5 mM glucose + 10% dialyzed FBS, 15.4 µM
[33] = RPMI 5 mM glucose + 10% dialyzed FBS, 46.1 µM

| Structure (SMILES) | cell viability [1] [%] | cell viability [2] [%] | cell viability [3] [%] | cell viability [4] [%] | cell viability [5] [%] | cell viability [6] [%] | cell viability [7] [%] | cell viability [8] [%] | cell viability [9] [%] | cell viability [10] [%] | cell viability [11] [%] | cell viability [12] [%] | cell viability [13] [%] | cell viability [14] [%] | cell viability [15] [%] | cell viability [16] [%] | cell viability [17] [%] | cell viability [18] [%] | cell viability [19] [%] | cell viability [20] [%] | cell viability [21] [%] | cell viability [22] [%] | cell viability [23] [%] | cell viability [24] [%] | cell viability [25] [%] | cell viability [26] [%] | cell viability [27] [%] | cell viability [28] [%] | cell viability [29] [%] | cell viability [30] [%] | cell viability [31] [%] | cell viability [32] [%] | cell viability [33] [%] |
| --- | --- | --- | --- | --- | --- | --- | --- | --- | --- | --- | --- | --- | --- | --- | --- | --- | --- | --- | --- | --- | --- | --- | --- | --- | --- | --- | --- | --- | --- | --- | --- | --- | --- |
| O=C(NOCC(O)CO)c1cc(Br)c(F)c(F)c1Nc1ccc(I)cc1F (stereo unspecified) | 65.8 | 77.1 | 72.1 | 79.8 | 59.2 | 50.5 | 30.1 | 32.6 | 29 | 33.9 | 20 | 69.1 | 90.6 | 67.6 | 73.3 | 66.5 | 50.5 | 28.1 | 33.7 | 27.5 | 28.8 | 27.8 | 81.3 | 84.3 | 59.2 | 58.1 | 49.8 | 40.9 | 27.5 | 30.3 | 26.7 | 31.2 | 24.6 |
| C[C@@H](NC1=CC=CC=C1C(O)=O)C/2=C/C(=C\N3C(=O)/C=C(\N=C23)N4CCOCC4)C | 81.1 | 88.7 | 89.8 | 93.6 | 99.7 | 81.6 | 82.6 | 61.7 | 40.3 | 29.4 | 11.7 | 79.1 | 73.6 | 79.9 | 91.2 | 88.2 | 87.5 | 78 | 77.7 | 48.3 | 27.7 | 11.1 | 74.8 | 82.9 | 95.2 | 88.9 | 87.8 | 93.4 | 83 | 65.2 | 41.8 | 33.1 | 7.82 |
| CC1(C)CCC[C@]2(C)[C@H]3CC(=O)O[C@]3(C)CC[C@@H]12 | 126 | 107 | 113 | 114 | 118 | 121 | 123 | 112 | 126 | 120 | 98.6 | 119 | 111 | 118 | 121 | 107 | 112 | 129 | 98 | 111 | 110 | 81.2 | 122 | 112 | 125 | 120 | 125 | 106 | 110 | 105 | 106 | 101 | 92.5 |
| C/C=C1\NC(=O)[C@H]2CSSCC/C=C\[C@H](CC(=O)N[C@H](C(C)C)C(=O)N2)OC(=O)[C@H](C(C)C)NC1=O | 102 | 119 | 119 | 105 | 17.7 | 4.68 | 4.81 | 4.43 | 5.27 | 4.81 | 4.24 | 99.6 | 97.5 | 104 | 94.9 | 18.1 | 4.23 | 3.46 | 3.14 | 2.93 | 2.29 | 2.53 | 93.7 | 90.3 | 103 | 108 | 30.1 | 4.52 | 4.41 | 3.52 | 3.86 | 1.77 | 3.47 |
| CC1(C)CC(=O)c2c(C(F)(F)F)nn(-c3ccc(C(N)=O)c(NC4CCC(O)CC4)c3)c2C1 (stereo unspecified) | 83.4 | 77.1 | 69 | 72.5 | 96.9 | 58.7 | 16 | 14.1 | 15.1 | 15.6 | 78.3 | 86.5 | 81.8 | 82.1 | 84.2 | 82.2 | 47.7 | 12.5 | 9.32 | 8.93 | 8.3 | 75.8 | 91.7 | 94.1 | 102 | 94.5 | 81.6 | 48.9 | 17.1 | 12.1 | 12.2 | 11.6 | 80.6 |
| C#Cc1cccc(Nc2ncnc3cc(OCCOC)c(OCCOC)cc23)c1 | 94.2 | 104 | 101 | 83.7 | 108 | 86 | 90.9 | 110 | 79.3 | 75.3 | 45.7 | 85.4 | 96.9 | 102 | 102 | 93.2 | 91.8 | 95 | 93.7 | 89.7 | 85.1 | 70.7 | 92.2 | 85.5 | 88.9 | 83.4 | 86.6 | 83.8 | 85.4 | 89 | 77.6 | 84 | 50.2 |
| COc1cccc2cc(-c3nc(C4CCC(C(=O)O)CC4)n4ncnc(N)c34)[nH]c12 (stereo unspecified) | 116 | 124 | 102 | 119 | 99.8 | 94.7 | 68.2 | 38.7 | 34.8 | 37.3 | 47.1 | 109 | 113 | 107 | 106 | 105 | 105 | 98.4 | 55.3 | 30 | 26.3 | 19.9 | 105 | 104 | 108 | 115 | 102 | 105 | 88.1 | 53.6 | 41.7 | 26.9 | 27.8 |
